Experimental findings from US11007208B2 (priority 2015, dated 2021) are described below.

Where two headings read alike, the source gives them in different places. Some results are limits rather than exact numbers.

For series [1], the system named is Junin virus. The experiment in a line: microbe, parasite or virus in culture. Format: cell-based. Particulars: Mammarenavirus juninense, HeLa; for EC50: read-out: EC50 HCS Junin HeLa; for EC90: read-out: EC90 HCS Junin HeLa.
Series [2] concerns MERS-CoV (Strain Jordan N3). The experiment in a line: microbe, parasite or virus in culture. Format: cell-based. To be noted: Middle East respiratory syndrome-related coronavirus, Vero, read-out: EC50 MERS-CoV Vero.
A further series has as its system Lassa virus. Nature of the series: microbe, parasite or virus in culture. Format: cell-based. Particulars: Mammarenavirus lassaense, HeLa; for EC50: read-out: EC50 HCS Lassa HeLa; for EC90: read-out: EC90 HCS Lassa HeLa.
For series [3], the system named is Junin virus. Nature of the series: microbe, parasite or virus in culture. Format: cell-based. To be noted: Mammarenavirus juninense, Vero; for EC90: read-out: EC90 Junin Vero.
For series [4], the system named is MERS-CoV. The experiment in a line: microbe, parasite or virus in culture. It counts as cell-based. To be noted: Middle East respiratory syndrome-related coronavirus, Calu-3 2B4, read-out: EC50 MERS (Calu-3).
Series [5] concerns MERS-CoV isolate HCoV-EMC/2012. Also noted: species or system rhesus monkeys. Particulars: rhesus monkey, in vivo.
Series [6] concerns SARS-CoV. Nature of the series: microbe, parasite or virus in culture. To be noted: Severe acute respiratory syndrome coronavirus, HAE, read-out: EC50 SARS (HAE). It counts as cell-based.
Series [7] has as its system SARS-CoV. Also noted: species or system mice. To be noted: mouse, in vivo.
The test system of series [8] is MERS-CoV. Nature of the series: microbe, parasite or virus in culture. It counts as cell-based. Particulars: Middle East respiratory syndrome-related coronavirus, HAE, read-out: EC50 MERS (HAE).
For series [9] the following is noted: mouse, in vivo.
The test system of series [10] is SARS-CoV. Nature of the series: microbe, parasite or virus in culture. Particulars: Severe acute respiratory syndrome coronavirus, Calu-3 2B4, read-out: EC50 SARS (Calu-3). Format: cell-based.
A short description of series [11]: in vitro. Particulars: human.
Series [12] in a line: in vitro. Particulars: human. This is another data set of the same source.

Regarding `CCC(CC)COC(=O)[C@H](C)NP(=O)(OC[C@H]1O[C@@](C#N)(c2ccc3c(N)ncnn23)[C@H](O)[C@@H]1O)Oc1ccccc1` (stereo partly drawn) [Compound 9, (2S)-2-ethylbutyl 2-((((2R,3S,4R,5R)-5-(4-aminopyrrolo[1,2-f][1,2,4]triazin-7-yl)-5-cyano-3,4-dihydroxytetrahydrofuran-2-yl)methoxy)(phenoxy)phosphorylamino)propanoate], the EC50 in the series with Junin virus [1] is 490 nM; in [2], 460 nM; in the series on Lassa virus, 2000 nM; in the series on Junin virus [3] (read-out: EC50 Junin Vero), greater than 47000 nM. In addition, the EC90 in the series with Junin virus [1] is 1250 nM; with Lassa virus it was 4210 nM; in the series on Junin virus [3], greater than 47000 nM.
Take `CCC(CC)COC(=O)[C@H](C)N[P@](=O)(OC[C@H]1O[C@@](C#N)(c2ccc3c(N)ncnn23)[C@H](O)[C@@H]1O)Oc1ccccc1` [Compound 32, (S)-2-ethylbutyl 2-(((S)-(((2R,3S,4R,5R)-5-(4-aminopyrrolo[2,1-f][1,2,4]triazin-7-yl)-5-cyano-3,4-dihydroxytetrahydrofuran-2-yl)methoxy)(phenoxy)phosphoryl)amino)propanoate]: in the series with MERS-CoV [4], the EC50 was found to be 30 nM. Besides, in [5], the Respiration rates result was “tended to be higher at Day 6 in vehicle-treated animals”; the “Viral RNA in the liver, spleen, kidney and bladder tissue” value is reported as “below the limit of detection”; the “Viral RNA in the mediastinal lymph node” value is listed as “detected in all animals”; the “Viral RNA in the respiratory tract” value is reported as “significantly reduced”. Also, the “Viral load in nose swabs and throat swabs” value in [5] is “no difference in viral load”. Besides, in series [5] (iv, 10 mg/kg), the “Body weight and body temperature during the course of the infection” value is “did not change appreciably”; the Cumulative clinical scores entry is on record as “notably higher in vehicle-treated animals”; the Disease symptoms entry was “less pronounced”. In addition, the EC50 in the series with SARS-CoV [6] was found to be 69 nM. Further, in the series with SARS-CoV [7], the “Changes in body weight post infection” value was “no evidence of weight loss”; the “Expiration Time and End Expiratory Pause (whole body plethysmography)” value is “reduced”; the “Infectious virus in lung tissue by plaque assay” value is “significantly decreased”; the “Penh values (whole body plethysmography)” value is reported as “lower compared to vehicle-treated animals”. Also, in the series on Junin virus [1], the EC50 was found to be 470 nM and the EC90 was found to be 1260 nM. Moreover, the EC50 in series [2] stood at 580 nM. In the series on Lassa virus, the EC50 was 1650 nM and the EC90 was 3310 nM. Moreover, the EC50 with MERS-CoV [8] was 74 nM. The Plasma stability entry in series [9] is “improved the plasma stability”. Besides, in the series on SARS-CoV [10], the EC50 was found to be 10 nM. In “in vitro [11]”, this compound gave a CC50 greater than 10000 nM. In “in vitro [12]”, the CC50 was greater than 10000 nM.
Regarding `N#C[C@@]1(c2ccc3c(N)ncnn23)O[C@H](CO)[C@@H](O)[C@H]1O` [Compound 1, (2R,3R, 4S, 5R)-2-(4-aminopyrrolo[1,2-f][1,2,4]triazin-7-yl)-3,4-dihydroxy-5-(hydroxymethyl)tetrahydrofuran-2-carbonitrile], the values for the EC50 in the series with SARS-CoV [6] and in the series with MERS-CoV [8] were 220 nM and 460 nM, respectively. Besides, in the series on Junin virus [3], the EC90 is greater than 47000 nM. The CC50 in the series “in vitro [11]” and in “in vitro [12]” was greater than 100000 nM each time.

In general, EC50 refers to the midpoint of the concentration-response curve. A word on the EC90: it is the point of the concentration-response curve where the effect stands at 90%.
